Data from patent US20190125727A1, “FIXED DOSE COMBINATION FOR PAIN RELIEF WITHOUT EDEMA” (Marina Biotech, Inc., priority 2014, published 2019).
Values joined by “and” are separate entries in the source; they are usually repeats but may differ in a detail not shown here. Equal values may be shown once.

Assays:
[1] = Table 1 of CELEBREX Package Insert; cited from earlier work
[2] = Celecoxib AUC from combined published pharmacokinetic data
[3] = clinical; conditions: human, in vivo, oral, 200 mg
[4] = Incidence of edema in SYMPHONY claims / ACC registry database; assay type: in vivo, human
Text: To support this study a database was created which contains: 1) Claims data from SYMPHONY DATABASE® pertaining to anti-hypertensives, Statins, COX-2's, and NSAIDS. The data span the most recent 36 months and 2) registry data from the ACC reporting Blood Pressure (systolic/diastolic), peripheral edema flags (yes, no, missing), Heart rate, LDL, Glucose Level, Ejection fraction, GFR, Height, Weight, BJVII, and the like.
SYMPHONY DATABASE® contains true patient level data—All Data Sources be it RX or JVIX claims is tied back to individual patients which is tracked and then encrypted based on first name, last name, gender, DOB and zip code to give an accurate picture of patient level informatics year over year regardless of insurance changes.
The properties for the SYMPHONY DATABASE® are: 1) Takes CELEBREX® antihypertensive, AH, Statin or NSAID or have OA, RA or some other form of arthritis, 36 months, 2) Time Frame=Jan. 1, 2012-Dec. 31, 2014 (3 years), 3) Number of files=201, 4) Size=561 GB zipped (−2.5 TB), 5) Unique Patients=162 million, 6) Patients on CELEBREX®=4.3 million, 7) Patients that have OA=16.3 million (15.4 million only OA), 8) Patients that have RA=2.3 million (1.4 million only RA).
The properties of the ACC registry are: 1) Have 3+BP readings, 2) Time Frame=Jan. 1, 2012-Dec. 31, 2014 (3 years), 3) Number of files=2, 4) Size=590 MB, 51 MB, 5) Unique Patients=1.58 million, 6) Patients with BP readings=1.58 million, 7) Patients with Edema Flag True=870 K.
The edema rate was then measured in the aforementioned database. The incidence of edema was higher for OA patients than RA, other Arthritis, or Arthritis free patients. […] Overall OA seems to be susceptible to CELEBREX® induced edema. The results confirmed the meta-analysis shown above. […]

[5] = Moore et al., cited from earlier work
[6] = Applicant's meta-analysis of reported edema rates in osteoarthritic populations by celecoxib dose; conditions: 400 mg/day
[7] = no arthritis patients with CELEBREX
[8] = other arthritis patients with CELEBREX

SMILES: COc1ccc2cc([C@H](C)C(=O)O)ccc2c1 [naproxen]
- patients treated that develop edema [1]: 2.1%

SMILES: Cc1ccc(-c2cc(C(F)(F)F)nn2-c2ccc(S(N)(=O)=O)cc2)cc1 [celecoxib]
- AUC Max. ([2]; 100 mg): 3418 ng·h/mL
- AUC Med. ([2]; 100 mg): 3395 ng·h/mL
- AUC Min. ([2]; 100 mg): 2465 ng·h/mL
- AUC Max. ([2]; 200 mg): 6791 ng·h/mL
- AUC Min. ([2]; 200 mg): 5972 ng·h/mL
- AUC [3]: 6440 ng·h/mL
- incidence of edema ([4]; Days of Therapy 60-120): (18.1%)
- incidence of edema ([4]; Days of Therapy 120-180): (19.3%)
- incidence of edema ([4]; Days of Therapy 180-240): (21.6%)
- incidence of edema ([4]; Days of Therapy <60): (19.4%)
- incidence of edema ([4]; Days of Therapy >240): (26.7%)
- cases of edema (%), OA ([4]; OA patients with CELEBREX): (6.0%)
- cases of edema, OA ([4]; OA patients with CELEBREX): 254
- cases of edema (%), RA ([4]; RA patients with CELEBREX): (3.3%)
- cases of edema, RA ([4]; RA patients with CELEBREX): 82
- cases of edema (%), No Arthritis [4, 7]: (0.4%)
- cases of edema, No Arthritis [4, 7]: 451
- cases of edema (%), Other Arthritis [4, 8]: (4.1%)
- cases of edema, Other Arthritis [4, 8]: 1702
- incidence of edema at any site, usual ([5]; clinical trials of celecoxib): about 3%
- incidence of edema in two trials ([5]; two trials): 23% and 38%
- edema event rate (upper limit and average) versus 100 or 200 mg/day dose [6]: more than twice as high
- patients treated that develop edema [1]: 2.1%

SMILES: CC(C)Cc1ccc(C(C)C(=O)O)cc1 (centres unmarked) [ibuprofen]
- patients treated that develop edema [1]: 3.5%

SMILES: O=C(O)Cc1ccccc1Nc1c(Cl)cccc1Cl [diclofenac]
- patients treated that develop edema [1]: 1.0%
